Laboratory results: US9121022B2, “Method for controlling herbicide-resistant plants” (priority 2010, dated 2015)

How the values were obtained:
[1] = system: Nicotiana benthamiana phytoene desaturase; test: topical PDS oligonucleotides/polynucleotides on tobacco, bleaching and chlorophyll (Example 10); type: in vivo; conditions: another assay
Excerpt: The target gene used was a Nicotiana benthamiana phytoene desaturase (SEQ ID NO:2), shown in FIG. 10; the segment consisting of nucleotides 421-1120 of SEQ ID NO:2 (underlined text in FIG. 10) was used to design a 700-mer dsRNA polynucleotide (“PDS 700-mer”) and the segment consisting of nucleotides 914-1113 of SEQ ID NO:2 (bolded underlined text in FIG. 10) was used to design a 200-mer dsRNA polynucleotide (“PDS 200-mer”). FIG. 11 schematically depicts the location of the sequences of these oligonucleotides and polynucleotides in relation to the […] (SEQ ID NO:2) sequence. Non-plant sequences obtained from corn rootworm (“CRW”), SEQ ID NOs:27, 28, 29, and 30 were used as non-homologous controls. Some of the polynucleotides included a T7 promoter sequence (indicated by lower-case text in Table 3) that is a promoter recognized by a bacteriophage T7 RNA polymerase.
The following procedure was used for all assays described in this example. Four-week old Nicotiana benthamiana plants were used in all assays. Plants were treated with 0.1% SILWET L-77® brand surfactant solution freshly made with ddH2O. Two fully expanded leaves per plant (one cotyledon, one true leaf) were dipped into the SILWET L-77® brand surfactant solution for a few seconds, and allowed to dry for 15-30 minutes before application of the polynucleotide composition. Final concentration for each oligonucleotide or polynucleotide was 25 microM (in 0.01% SILWET L-77® brand surfactant, 5 mM sodium phosphate buffer, pH 6.8) unless otherwise stated. 20 microliters of the solution was applied to the top surface of each of the two pre-treated leaves to provide a total of 40 microliters (1 nmol oligonucleotide or polynucleotide) for each plant. Leaf bleaching was observed 3 days post treatment.
FIG. 13 illustrates phenotypes observed at day 12 after treatment in another assay of the effect from twelve combinations of polynucleotides or oligonucleotides (see Table 4). Table 4 also lists observations of visible bleaching of the plants at day 5 after treatment and the results of chlorophyll measurements taken at days 7 and 12 after treatment. Chlorophyll measurements are an indication of suppression of the target gene phytoene desaturase, and measurements were taken at 6 spots on the apical area, focussing on visibly bleached leaves or (in plants without visible bleaching) on leaves in equivalent locations on the plants; lower chlorophyll measurement values indicate suppression of phytoene desaturase.

[2] = system: Nicotiana benthamiana plants (endogenous PDS, EPSPS, RuBisCO genes); test: PDS, EPSPS or RuBisCO anti-sense polynucleotides on Nicotiana benthamiana, plant height and phenotype (Example 33); type: in vivo
Excerpt: An anti-sense polynucleotide with the sequence […] (SEQ ID NO:34) was designed for the endogenous Nicotiana benthamiana phytoene desaturase (PDS) gene, which has the cDNA sequence fragments […] […] (SEQ ID NO:38). Anti-sense polynucleotides with the sequences […] (SEQ ID NO:279), […] (SEQ ID NO:280), […] (SEQ ID NO:281), […] (SEQ ID NO:282), […] (SEQ ID NO:283), and […] (SEQ ID NO:284) were designed for the endogenous Nicotiana benthamiana 5-enolpyruvylshikimate-3-phosphate synthase (EPSPS) gene, based on the Nicotiana benthamiana EPSPS cDNA sequence […] […] (SEQ ID NO:285), […] […] (SEQ ID NO:286), and […] […] (SEQ ID NO:287). Anti-sense polynucleotides with the sequences […] (AK195, RBCS—1-2-3-4, SEQ ID NO:288), […] (AK196, RBCS—1-2-3-4, SEQ ID NO:289), […] (AK197, RBCS—1-2-3-4, SEQ ID NO:290), […] (AK198, RBCS—1-2, SEQ ID NO:291), […] (AK199, RBCS—1-2, SEQ ID NO:292), […] (AK200, RBCS—3-4, SEQ ID NO:293), […] (AK201, RBCS—3-4, SEQ ID NO:294), and […] (AK202, RBCS—3-4, SEQ ID NO:295) were designed for the endogenous Nicotiana benthamiana ribulose-1,5-bisphosphate carboxylase oxygenase (RuBisCO) gene, based on the Nicotiana benthamiana chloroplastic RuBisCO small chain 2A cDNA sequence fragments • […] […]

CATCTCCTTTAATTGTACTGC (DNA, backbone not given here) [PDS 21-mer anti-sense ssDNA]
bleaching of apical leaves (FIG. 15) [1]: apical leaf bleaching observed | plant height (FIGS. 36A-36C) ([2]; 12 days (PDS and EPSPS) or 10 days (RuBisCO) after treatment): severe stunting | other phenotype ([2]; PDS 25 nanomoles, EPSPS and RuBisCO 50 nanomoles of each polynucleotide per plant): bleaching
